Laboratory results as given in PubChem BioAssay AID449764 (Southern Research Specialized Biocontainment Screening …, 2010).

Test system: Mycobacterium tuberculosis H37Rv growth inhibition, no glycerol
Experiment: Confirmatory growth inhibition assay, Mycobacterium tuberculosis H37Rv, absence of glycerol (AID 449764);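 also: growth read after 7 days of incubation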
Details: for IC90: measured here: IC90 growth inhibition

Row | SMILES | IC50 | IC90
1 | Cc1ccc(OCCN2CCN(c3ncnc4sc(C)c(C)c34)CC2)cc1 | 53.5 µM | 79.3 µM
2 | O=c1cc(O)c2sc3nc(-c4cccnc4)cc(C(F)(F)F)c3c2[nH]1 | 39.8 µM | > 100 µM
3 | Cc1cc(C)n(-c2nc(Nc3ccccc3C(F)(F)F)nc(-n3nc(C)cc3C)n2)n1 | 1.3 µM | 2.01 µM
4 | O=C(c1cc(COc2ccc(F)cc2F)on1)N1CCCC(c2ccccc2)C1 (stereo unspecified) | 53.8 µM | > 100 µM
5 | CCOc1ccc(Nc2cc(C)nc(-n3nc(C)cc3C)n2)cc1 | 2.27 µM | 4.89 µM
6 | Cc1nonc1OCCNCCNc1ccc([N+](=O)[O-])c2cccnc12 | 17.7 µM | 31.4 µM
7 | COc1cccc(-c2nnc(NC(=O)c3ccc(S(=O)(=O)N4CCOCC4)cc3)o2)c1 | 32.4 µM | 46 µM
8 | COc1ccccc1N(O)C1CC(=O)N(c2ccc(Br)cc2)C1=O (stereo unspecified) | 22.9 µM | 25.9 µM
9 | CCOC(=O)C1CCN(c2nc3cc(OC)ccc3cc2C#N)CC1 | 83.5 µM | > 100 µM
10 | Cc1nnc(-c2ccccc2)c(=O)n1/N=C/c1c(O)ccc2ccccc12 | 22.1 µM | 24.7 µM
11 | S=C1SCN(Cc2ccco2)CN1Cc1ccco1 | 43.1 µM | 54.2 µM
12 | N#Cc1c([N+](=O)[O-])cc([N+](=O)[O-])cc1S(=O)(=O)Cc1ccccc1 | 22.6 µM | 25.9 µM
13 | N=C1C(c2nc3ccccc3[nH]2)=C(O)CN1NC(=O)c1c[nH]c2ccccc12 | 26.7 µM | 40.1 µM
14 | c1ccc(C2[C@H]3CN(CC4CCCCC4)[C@H](c4ccccc4)C34CC2(c2cccnc2)C4)cc1 (stereo partly specified) | 34.2 µM | 45.1 µM
15 | CCOc1ccc(-c2cc(C(=O)NCCCn3ccnc3)c3cc(Br)ccc3n2)cc1 | 24.9 µM | 27.6 µM
16 | Cc1ccc(C)c(-c2nn(-c3cc(N4CCN(CCO)CC4)ccc3[N+](=O)[O-])c(=O)c3ccccc23)c1 | 22.6 µM | 25.7 µM
17 | CCCCNc1nc(N(C)c2ccccc2)nc(-n2ccnc2)n1 | – | > 100 µM
18 | O=C(O)/C=C/C(=O)Nc1ccc(-c2ccccc2)cc1 | 94.1 µM | > 100 µM
19 | NC(=S)N/N=C/c1ccccc1OCCSc1ccc(Cl)cc1 | 37.8 µM | > 100 µM
20 | CCCn1c(Nc2nc3ccccc3n2C)nc2ccccc21 | 65.3 µM | 75.8 µM
21 | Cc1nn(Cc2ccccc2Cl)c2sc(C(=O)NCCCn3ccnc3)cc12 | 37.4 µM | 56 µM
22 | COc1ccc(C2c3[nH]c4ccccc4c3CCN2Cc2cccn2-c2ncccn2)cc1C (stereo unspecified) | 36.4 µM | 47 µM

Row | SMILES | IC50 | IC90
23 | COc1cc2cc(C(c3nnnn3C(C)(C)C)N3CCc4ccccc43)c(=O)[nH]c2cc1OC (stereo unspecified) | – | > 100 µM
24 | CS(=O)(=O)c1ccc([C@@H](O)[C@@H](CF)NC(=O)C(Cl)Cl)cc1 | 16.8 µM | 27.8 µM
25 | CCCCn1nc(C(=O)N[C@@H](CCSC)c2nc3ccccc3[nH]2)c2ccccc2c1=O | 46.9 µM | > 100 µM
26 | O=C(CN1CCN(Cc2ccc(Cl)cc2)CC1)N/N=C/C=C/c1ccccc1[N+](=O)[O-] | 36.3 µM | 45.6 µM
27 | Cc1c2c(nc3ccccc13)CCC(C)C2 (stereo unspecified) | 21.7 µM | 37.1 µM
28 | O=C(Cn1ncc(Cl)c(Cl)c1=O)c1ccc2c(c1)OCCO2 | 10.4 µM | 15.7 µM
29 | O=[N+]([O-])c1ccc(-c2nc(-c3cccs3)c(-c3cccs3)[nH]2)cc1 | 20.8 µM | > 100 µM
30 | COc1ccccc1NC(=O)CN1CCN(CC(=O)Nc2ccc3c(c2)OCO3)CC1 | 39.2 µM | 60 µM
31 | COc1ccccc1C(=O)NNC(=O)C(=O)NCc1ccccc1 | 22.8 µM | 40.6 µM
32 | c1ccc(CCN2CCN(c3ncnc4c3cnn4-c3ccccc3)CC2)cc1 | 47.7 µM | 91.1 µM
33 | C=C1CCC[C@]2(C)C[C@H]3OC(=O)C(CNC(C)CCCC(C)C)[C@H]3CC12 (stereo partly specified) | 23.4 µM | 26.2 µM
34 | CC1CCC(C(C)C)C(OC(=O)Cn2c(-c3ccc(F)cc3)[n+](C)c3ccccc32)C1 (stereo unspecified) | 10.8 µM | 14.4 µM
35 | O=C(N/N=C\C=C\c1ccc([N+](=O)[O-])o1)c1cccs1 | 10.8 µM | 15.1 µM
36 | CN1CCc2cc3c(c4c2C1Cc1ccccc1-4)OCO3 (stereo unspecified) | 2.35 µM | 3.03 µM
37 | Ic1ccccc1CN[C@@H]1C2CCN(CC2)[C@@H]1C(c1ccccc1)c1ccccc1 | 28.9 µM | 42.7 µM
38 | Cc1ccc(S(=O)(=O)NNC(=O)c2cc([N+](=O)[O-])c(C)c([N+](=O)[O-])c2)cc1 | 10.5 µM | 13.8 µM
39 | CCOC(=O)N1CCc2c(sc(NC(=O)c3ccc(Cl)s3)c2C(N)=O)C1 | 6.96 µM | 19.1 µM
40 | COc1ccc(COc2cc(-c3cccc(OC)c3)nc3ccc(NC(=O)c4ccc(OC)cc4)cc23)cc1 | 24 µM | > 100 µM
41 | O=c1c(O)c(-c2cccs2)oc2ccccc12 | 34.4 µM | > 100 µM
42 | Cc1ccc(OCCCCNC2CCCC(C)C2C)c(C)c1 (stereo unspecified) | 23.1 µM | 25.4 µM
43 | CNc1nc(-c2ccccn2)nnc1-c1ccccc1 | 22.7 µM | 25.4 µM
44 | Cc1ccc(S(=O)(=O)N(C)c2ccc(OCC(=O)OCc3ccc(C#N)cc3)cc2)cc1 | 17.3 µM | 28.3 µM
